The term IC50 denotes the concentration at which inhibition is half-maximal.

The results in this text go back to patent publication US20230219961A1, “Pyridine acetamide derivative serving as CDK inhibitor, and preparation method therefor and use thereof” (Suzhou AlphaMa Biotechnology Co., Ltd., priority 2020, published 2023).

One assay concerns Mv4-11 cells. In words: Inhibition of the proliferation of Mv4-11 cells (CCK8). The assay is classed as cell-based. As to conditions: Homo sapiens, MV4-11, 48 h. As to the method:
The inhibition effect of the compounds of the present disclosure on the proliferation of Mv4-11 cells (ATCC:CRL-9591™) in vitro was determined by the following method:
1) Cell inoculation: Mv4-11 cells with good growing state in logarithmic growth phase were inoculated into a 96-well plate at 20000 cells per well and 50 uL, and cultured at 37° C. and under 5% CO2 condition for 2-4 h.
2) Administration: The compound was diluted with 1640 medium containing 10% FBS and 1% PS: 0.4 uL of the compound with an initial concentration of 1 mM was placed in a dilution plate, each added with 199.6 uL of the above culture medium, and gradiently diluted 4-fold, so that the final concentration in the added cell was 1000, 250, 62.5, 15.625, 3.91, 0.98, 0.24, 0.06 nM. 50 µL of the medium containing the compound was sequentially added, and it was placed in a 37° C., 5% CO2 cell incubator for 48 hours.
3) Detection: 10uL CCK8 (Dojindo, CK 04) solution was added to each well, incubated in 37° C. 5% CO2 cell incubator for 2 hours, and then the OD450 value was read by Synegry H1(BioTek) multimode microplate reader.
4) Calculation: The IC50 value was calculated using Graphpad prism 5.0 software according to the concentration of the compound and the corresponding signal value.

In another assay the test system is RNA pol II Ser2. In words: CDK9 signaling pathway in Mv4-11 cells: phosphorylation of RNA pol II Ser2 (SDS-PAGE/blot). The class given is cell-based. As to conditions: 6 hours, FIG. 1. As to the method: (§1) The inhibition effect of the compounds of the present disclosure on CDK7/CDK9 protein downstream RNA pol II Ser ⅖ in Mv4-11 cells in vitro was determined by the following method:
(§2) 1) Cell inoculation: Mv4-11 cells with good growing state in logarithmic growth phase were inoculated into a six-well plate with 2^∗10^5 cells/well, and cultured overnight at 37° C. and under 5% CO2 condition.
(§3) 2) Administration: The compound was diluted with 2 mL of 1640 medium containing 10% FBS and 1% PS. […] of the medium containing the compound was added to the overnight cultured cells, and it was placed in a 37° C., 5% CO2 cell incubator for 6 hours.
(§4) 3) Protein extraction and quantification: Cell suspension was collected and centrifuged at 1000 g for 5 min, the cell culturing medium was discarded, and PBS was added for resuspension and centrifugation; it was repeated three times, the residual liquid was sucked dry, 80 uL cell lysate was added per well, it was placed to ice, shaked for 10 min on a shaker and centrifuged at 12000 g for 5 min, and the supernatant, ie, the total protein solution, was collected; the protein concentration was tested by BCA.
(§5) 4) 12% SDS-PAGE electrophoresis was used to detect, after that trarsmembran was carried out at 100 V voltage for 3 h, blocking solution (Beyotime: P0235) was used to block for 15 min, TBST(Sangon Biotech: C520002) was used to wash the membrane three times, and the primary antibody (target protein CST:13499, internal reference Beyotime: AF1186) was incubated at 4° C. overnight; the membrane was washed with TBST three times; the secondary antibody (Beyotime: A0208) was incubated at room temperature for 1 hour; the membrane was washed with TBST three times; ECL (Tanon: 180-501) was used for exposure and coloration.

Another assay addresses T1, CDK7 (Homo sapiens, UniProt P50613).
T1 construct: purchased Eurofilns (sic; Eurofins) 14-476 M
Nature of the assay: Inhibitory effect on the kinase activity of CDK7 in vitro (Caliper). The assay is classed as biochemical. To be noted: 77 uM ATP, 0.2 ug/uL CTD3 peptide; read-out: CDK 7 IC50. As to the method:
(§6) The detection of the inhibitory effect of the compounds of the present disclosure on the kinase activity of CDK7/CDK9 in vitro was determined by the following method:
(§7) 1) The compound was accurately weighed and dissolved in DMSO (Sigma, D2650) to a concentration of 100 mM for later use. The compound was diluted to 5-fold of a desired highest concentration, and diluted 4-fold into 6 concentration gradients, allowing the final concentration of the compound in the reaction system to be CDK7: 3000, 750, 188, 47, 12, 3 nM; CDK9: 100, 25, 6.25, 1.56, 0.39, 0.098 nM. 5 ul was taken to a 384-well plate (Corning, 4512).
(§8) 2) Kinase reaction: 10uL protein kinase (CDK7: Eurofilns,14-476 M; CDK9: Millipore,14-685 M) solution was added to the 384-well plate (Corning, 4512) containing the compound, and allowed to stand at room temperature for 10 min; a mixed solution of ATP(Sigma, A7699) and substrate polypeptide (CDK7: 77 uM ATP&0.2ug/uL CTD3 peptide (GL Biochem,SY356885); CDK9: 10 uM ATP&0.2 ug/uL CTD3 peptide (GL Biochem,SY356885)) was added, and allowed to stand at 28° C. for a short time; and then a stop solution was added to terminate the reaction at 25 uL per well.
(§9) 3) Detection: Data was collected by Caliper.
(§10) 4) Calculation: The IC50 value was calculated by Graphpad prism 5.0 software according to the concentration of the compound and the corresponding signal value.

Another assay has as its system RNA pol II Ser5. In words: CDK7 signaling pathway in Mv4-11 cells: phosphorylation of RNA pol II Ser5 (SDS-PAGE/blot). The assay is classed as cell-based. To be noted: 6 hours, FIG. 1. As to the method: as §1, §2, §3, §4, §5
The target of the next assay is T2, CDK9 (Homo sapiens, UniProt P50750).
T2 construct: purchased Millipore 14-685 M
T2 sequence (P50750 whole entry): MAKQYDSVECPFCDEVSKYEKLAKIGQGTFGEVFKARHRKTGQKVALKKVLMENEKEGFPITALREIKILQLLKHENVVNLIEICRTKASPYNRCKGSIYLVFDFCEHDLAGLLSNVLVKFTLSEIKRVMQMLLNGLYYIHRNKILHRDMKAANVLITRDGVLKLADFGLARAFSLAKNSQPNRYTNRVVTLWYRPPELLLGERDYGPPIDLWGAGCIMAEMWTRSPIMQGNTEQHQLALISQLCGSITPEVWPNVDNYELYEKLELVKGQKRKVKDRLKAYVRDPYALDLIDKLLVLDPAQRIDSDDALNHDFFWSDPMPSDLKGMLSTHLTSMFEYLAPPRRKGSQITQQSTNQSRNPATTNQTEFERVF
T2 sequence (O60563 whole entry partner): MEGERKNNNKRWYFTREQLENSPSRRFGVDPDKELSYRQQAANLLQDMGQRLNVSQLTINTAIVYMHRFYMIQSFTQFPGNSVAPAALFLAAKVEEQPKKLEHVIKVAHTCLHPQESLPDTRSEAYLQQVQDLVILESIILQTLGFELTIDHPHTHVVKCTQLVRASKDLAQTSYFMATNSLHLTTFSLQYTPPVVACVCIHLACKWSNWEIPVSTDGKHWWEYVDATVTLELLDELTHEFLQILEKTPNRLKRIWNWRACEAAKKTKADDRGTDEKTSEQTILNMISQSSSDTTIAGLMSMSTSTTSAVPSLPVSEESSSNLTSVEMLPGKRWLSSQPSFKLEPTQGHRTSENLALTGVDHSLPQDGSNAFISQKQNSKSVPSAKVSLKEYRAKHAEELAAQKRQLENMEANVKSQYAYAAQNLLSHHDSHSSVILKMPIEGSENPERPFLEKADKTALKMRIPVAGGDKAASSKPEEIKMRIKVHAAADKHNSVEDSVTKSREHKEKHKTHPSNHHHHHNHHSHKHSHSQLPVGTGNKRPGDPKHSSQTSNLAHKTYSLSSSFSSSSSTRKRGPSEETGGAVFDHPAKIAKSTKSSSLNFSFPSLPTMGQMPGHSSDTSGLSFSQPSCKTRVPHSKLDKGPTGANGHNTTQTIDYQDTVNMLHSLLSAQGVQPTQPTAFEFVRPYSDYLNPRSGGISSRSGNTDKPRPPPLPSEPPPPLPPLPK
In words: Inhibitory effect on the kinase activity of CDK9 in vitro (Caliper). The assay is classed as biochemical. To be noted: 10 uM ATP, 0.2 ug/uL CTD3 peptide; read-out: CDK 9 IC50. As to the method:
as §6, §7, §8, §9, §10

T1 sequence (P50613 whole entry): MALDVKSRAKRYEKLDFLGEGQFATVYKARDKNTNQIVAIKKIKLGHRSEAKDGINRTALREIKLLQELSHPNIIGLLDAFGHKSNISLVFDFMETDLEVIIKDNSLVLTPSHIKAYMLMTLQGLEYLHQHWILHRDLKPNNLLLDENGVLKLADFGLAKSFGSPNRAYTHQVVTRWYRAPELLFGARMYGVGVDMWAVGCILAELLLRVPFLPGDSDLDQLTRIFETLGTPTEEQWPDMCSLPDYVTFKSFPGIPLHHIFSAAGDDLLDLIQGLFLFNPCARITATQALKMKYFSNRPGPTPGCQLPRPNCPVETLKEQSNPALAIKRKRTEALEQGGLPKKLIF
T1 sequence (P51946 whole entry partner): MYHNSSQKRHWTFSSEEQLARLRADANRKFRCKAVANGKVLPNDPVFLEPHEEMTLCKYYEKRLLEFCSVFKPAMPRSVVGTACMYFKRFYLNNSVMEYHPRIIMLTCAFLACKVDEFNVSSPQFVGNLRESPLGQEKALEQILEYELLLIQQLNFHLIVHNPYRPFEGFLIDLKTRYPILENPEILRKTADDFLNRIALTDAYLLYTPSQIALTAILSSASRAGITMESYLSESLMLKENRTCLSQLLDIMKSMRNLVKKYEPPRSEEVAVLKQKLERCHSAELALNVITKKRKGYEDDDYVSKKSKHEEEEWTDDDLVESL
T1 sequence (P51948 whole entry partner): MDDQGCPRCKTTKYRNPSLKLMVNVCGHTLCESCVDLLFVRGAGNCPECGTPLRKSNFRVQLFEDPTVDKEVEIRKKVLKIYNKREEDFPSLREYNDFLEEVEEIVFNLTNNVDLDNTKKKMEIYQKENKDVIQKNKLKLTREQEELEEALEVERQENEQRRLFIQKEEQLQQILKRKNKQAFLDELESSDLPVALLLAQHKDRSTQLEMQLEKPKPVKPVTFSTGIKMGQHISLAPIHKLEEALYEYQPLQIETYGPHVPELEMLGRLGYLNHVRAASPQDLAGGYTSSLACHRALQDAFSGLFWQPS

In the case of `C[C@@H](C(=O)Nc1cc(-c2cnn3c2CC(C)(C)C3)c(Cl)cn1)c1cccc(C(N)=O)c1` [Compound 2-2, (R)-3-(1-((5-chloro-4-(5,5-dimethyl-5,6-di hydro-4H-pyrrolo[1,2-b]pyrazol-3-yl)pyridin-2-yl)amino)-1-oxopropan-2-yl)benzamide (assumed)], the IC50 in the assay with Mv4-11 cells amounted to 1.6 nM; at CDK7, 19 nM; at CDK9, 2.7 nM. The “inhibitory effect on the phosphorylation of CDK9 protein downstream RNA pol II Ser2” value in the assay on RNA pol II Ser2 is “significant inhibitory effect”. Also, the “inhibitory effect on the phosphorylation of the CDK7 protein downstream RNA pol II Ser5” value in the assay on RNA pol II Ser5 was “significant inhibitory effect”.
With `CNC(=O)c1cccc(CC(=O)Nc2cc(-c3cnn4c3CC(C)(C)C4)c(Cl)cn2)c1` [Compound 3, 3-(2-((5-chloro-4-(5,5-dimethyl-5,6-dihydro-4H-pyrrolo[1,2-b]pyrazol-3-yl)pyridin-2-yl)amino)-2-oxoethyl)-N-methylbenzamide], the figures for the half-inhibitory concentration (IC50) in the assay with Mv4-11 cells, on CDK7 and at CDK9 were 3.9 nM, 103 nM and 4 nM, respectively. Moreover, the “inhibitory effect on the phosphorylation of the CDK7 protein downstream RNA pol II Ser5” value in the assay on RNA pol II Ser5 is reported as “significant inhibitory effect”.
In the case of `C[C@@H](C(=O)Nc1cc(-c2cnn3c2CC(C)(C)C3)c(Cl)cn1)c1cccnc1` [Compound 11-2, (R)-N-(5-chloro-4-(5,5-dimethyl-5,6-dihydro-4H-pyrrolo[1,2-b]pyrazol-3-yl)pyridin-2-yl)-2-(pyridin-3-yl)propionamide (assumed)], the IC50 in the assay on Mv4-11 cells was found to be 13 nM; on CDK9, 2.9 nM. In addition, the “inhibitory effect on the phosphorylation of CDK9 protein downstream RNA pol II Ser2” value in the assay with RNA pol II Ser2 is “significant inhibitory effect”. Moreover, the “inhibitory effect on the phosphorylation of the CDK7 protein downstream RNA pol II Ser5” value with RNA pol II Ser5 is listed as “significant inhibitory effect”.
Regarding `C[C@H](C(=O)Nc1cc(-c2cnn3c2CC(C)(C)C3)c(Cl)cn1)c1cccc(C#N)n1` [Compound 13-1, (S)-N-(5-chloro-4-(5,5-dimethyl-5,6-dihydro-4H-pyrrolo[1,2-b]pyrazol-3-yl)pyridin-2-yl)-2-(6-cyanopyridin-2-yl)propionamide (assumed)], the IC50 in the assay on Mv4-11 cells came to 148 nM; at CDK9, 44.4 nM. Also, in the assay on RNA pol II Ser2, the “inhibitory effect on the phosphorylation of CDK9 protein downstream RNA pol II Ser2” value was “significant inhibitory effect”.
Take `C[C@@H](C(=O)Nc1cc(-c2cnn3c2CC(C)(C)C3)c(Cl)cn1)c1cccc(C#N)n1` [Compound 13-2, (R)-N-(5-chloro-4-(5,5-dimethyl-5,6-dihydro-4H-pyrrolo[1,2-b]pyrazol-3-yl)pyridin-2-yl)-2-(6-cyanopyridin-2-yl)propionamide (assumed)]: the IC50 in the assay with Mv4-11 cells was 4.8 nM; at CDK7, 328 nM; at CDK9, 3 nM. Also, in the assay on RNA pol II Ser5, the “inhibitory effect on the phosphorylation of the CDK7 protein downstream RNA pol II Ser5” value is “significant inhibitory effect”.
